Measurements taken from the NIST ThermoML archive (doi:10.1021/je800110r).

Settings: 313.14 K, Liquid, Vibrating tube method

CCCCCCCCCC [decane]
Settings	mass density [kg/m3]
9156 kPa	722.3
9171 kPa	722.4
9194 kPa	722.3
9210 kPa	722.4
9227 kPa	722.3
9245 kPa	722.2
9261 kPa	722.3
9284 kPa	722.4
9300 kPa	722.4
9323 kPa	722.5
9338 kPa	722.6
9358 kPa	722.5
9374 kPa	722.6
9392 kPa	722.5
9410 kPa	722.6
9431 kPa	722.4
9447 kPa	722.6
9463 kPa	722.7
9479 kPa	722.4
9503 kPa	722.6
9522 kPa	722.6
9538 kPa	722.5
9554 kPa	722.6
9574 kPa	722.7
9587 kPa	722.7
9607 kPa	722.6
9627 kPa	722.6
9646 kPa	722.6
9674 kPa	722.5
9694 kPa	722.8
9717 kPa	722.7
9733 kPa	722.8
9747 kPa	722.7
9770 kPa	722.9
9785 kPa	722.8
9807 kPa	722.8
9828 kPa	722.9
9851 kPa	722.9
9869 kPa	722.8
9892 kPa	722.9
9913 kPa	722.9
9930 kPa	723
9945 kPa	722.9
9970 kPa	722.9
9985 kPa	722.9
10007 kPa	722.8
10022 kPa	723
10046 kPa	723
10062 kPa	723
10088 kPa	723
10107 kPa	723
10128 kPa	723.1
10147 kPa	723.1
10166 kPa	723
10182 kPa	723.1
10199 kPa	723.1
10221 kPa	723.1
10234 kPa	723.2
10262 kPa	723.3
10278 kPa	723.1
10295 kPa	723.2
10317 kPa	723.1
10340 kPa	723.2
10361 kPa	723.2
10381 kPa	723.2
10400 kPa	723.3
10421 kPa	723.3
10437 kPa	723.4
10454 kPa	723.3
10483 kPa	723.4
10497 kPa	723.3
10520 kPa	723.3
10540 kPa	723.4
10567 kPa	723.5
10593 kPa	723.4
10616 kPa	723.5
10634 kPa	723.5
10655 kPa	723.6
10673 kPa	723.6
10694 kPa	723.6
10718 kPa	723.6
10739 kPa	723.6
10757 kPa	723.6
10781 kPa	723.5
10805 kPa	723.6
10821 kPa	723.7
10843 kPa	723.6
10861 kPa	723.7
10876 kPa	723.6
10895 kPa	723.7
10916 kPa	723.7
10935 kPa	723.7
10960 kPa	723.6
10988 kPa	723.7
11007 kPa	723.8
11027 kPa	723.8
11049 kPa	723.8
11070 kPa	723.9
11096 kPa	723.8
11115 kPa	723.9
11141 kPa	723.9
11164 kPa	723.9
11184 kPa	723.9
11210 kPa	723.9
11236 kPa	723.9
11260 kPa	724
11286 kPa	724
11306 kPa	724.1
11326 kPa	724
11344 kPa	724.1
11361 kPa	723.9
11385 kPa	724.2
11406 kPa	724
11429 kPa	724
11459 kPa	724
11480 kPa	724
11497 kPa	724.2
11518 kPa	724.2
11549 kPa	724.3
11570 kPa	724.3
11592 kPa	724.1
11609 kPa	724.3
11631 kPa	724.3
11661 kPa	724.2
11689 kPa	724.3
11711 kPa	724.5
11743 kPa	724.4
11765 kPa	724.3
11794 kPa	724.4
11820 kPa	724.4
11852 kPa	724.4
11886 kPa	724.5
11915 kPa	724.5
11945 kPa	724.4
11976 kPa	724.6
12006 kPa	724.5
12029 kPa	724.6
12060 kPa	724.5
12090 kPa	724.6
12118 kPa	724.7
12149 kPa	724.5
12173 kPa	724.7
12197 kPa	724.7
12233 kPa	724.6
12257 kPa	724.7
12287 kPa	724.9
12324 kPa	724.8
12341 kPa	724.8
12365 kPa	724.9
12382 kPa	724.9
12406 kPa	724.9
12434 kPa	724.8
12459 kPa	724.9
12483 kPa	724.9
12501 kPa	724.9
12523 kPa	725
12552 kPa	725
12574 kPa	725
12596 kPa	724.9
12624 kPa	724.9
12650 kPa	725
12672 kPa	725.1
12695 kPa	725.2
12721 kPa	725.1
12751 kPa	725.1
12774 kPa	725.1
12807 kPa	725.3
12834 kPa	725.2
12857 kPa	725.2
12882 kPa	725.3
12901 kPa	725.2
12923 kPa	725.3
12948 kPa	725.2
12973 kPa	725.3
12992 kPa	725.3
13015 kPa	725.3
13037 kPa	725.5
13059 kPa	725.3
13081 kPa	725.3
13107 kPa	725.5
13127 kPa	725.5
13151 kPa	725.5
13171 kPa	725.4
13187 kPa	725.6
13210 kPa	725.5
13230 kPa	725.5
13253 kPa	725.4
13276 kPa	725.5
13309 kPa	725.5
13333 kPa	725.4
13357 kPa	725.5
13384 kPa	725.7
13405 kPa	725.6
13434 kPa	725.7
13451 kPa	725.8
13475 kPa	725.6
13499 kPa	725.8
13520 kPa	725.7
13538 kPa	725.7
13562 kPa	725.7
13583 kPa	725.7
13607 kPa	725.8
13636 kPa	725.8
13654 kPa	725.8
13682 kPa	726
13714 kPa	725.9
13743 kPa	725.9
13768 kPa	725.9
13797 kPa	725.9
13830 kPa	725.9
13848 kPa	726
13878 kPa	726
13900 kPa	726
13932 kPa	726
13970 kPa	726.1
13987 kPa	726.1
14008 kPa	726.2
14029 kPa	726.1
14050 kPa	726.2
14071 kPa	726.1
14091 kPa	726.2
14119 kPa	726.1
14140 kPa	726.1
14168 kPa	726.2
14196 kPa	726.3
14224 kPa	726.2
14253 kPa	726.3
14277 kPa	726.4
14302 kPa	726.3
14328 kPa	726.3
14353 kPa	726.4
14371 kPa	726.3
14405 kPa	726.4
14426 kPa	726.3
14449 kPa	726.4
14485 kPa	726.5
14511 kPa	726.5
14540 kPa	726.5
14570 kPa	726.5
14600 kPa	726.4
14630 kPa	726.5
14663 kPa	726.6
14693 kPa	726.7
14719 kPa	726.7
14750 kPa	726.6
14780 kPa	726.7
14811 kPa	726.8
14830 kPa	726.7
14861 kPa	726.7
14892 kPa	726.8
14919 kPa	726.8
14944 kPa	726.8
14964 kPa	726.8
14984 kPa	726.8
15008 kPa	726.8
15036 kPa	726.9
15068 kPa	726.9
15100 kPa	727
15125 kPa	727
15154 kPa	726.9
15190 kPa	727
15219 kPa	727
15248 kPa	727
15273 kPa	727.1
15314 kPa	727.1
15343 kPa	727.2
15372 kPa	727.2
15397 kPa	727
15423 kPa	727.1
15441 kPa	727.2
15467 kPa	727.3
15485 kPa	727.2
15504 kPa	727.2
15526 kPa	727.2
